This note sets out measurements from patent US20240058251A1, “Composition for Oral Cavity” (SUNSTAR SUISSE SA, priority 2020, published 2024).

Structures are written as SMILES.

In this experiment the test system is Streptococcus oralis spp. tigurinus. Kind of experiment: S. oralis culture test (Alamar Blue fluorescence; proliferation rate relative to a control containing no sample solution). Format: cell-based. As to the method:
S. oralis was cultured in BHI medium (Brain Heart Infusion broth (manufactured by BD)). After the turbidity of the medium at a wavelength of 660 nm was measured, the culture solution was diluted with BHI medium until the turbidity was 0.1. The diluted medium was used as a bacterial solution. As S. oralis, Streptococcus oralis spp. tigurinus was used.
Sample solutions of Examples and Comparative Examples were prepared by dissolving an amino acid and a sugar in the BHI medium. The concentrations of the amino acid in the sample solutions were set at 0 mg/ml or 15 mg/ml and the concentrations of the sugar were set at 20 mg/ml.
To the wells of a 96-well plate, the bacterial solution (100 μl) and a sample solution (100 μl) were added. The 96-well plate was subjected to culturing performed at 37° C. in anaerobic conditions for 24 hours. After completion of the culture, the supernatant was removed and 110 μl of an Alamar Blue solution (manufactured by Invitrogen) diluted 11-fold with phosphate buffer saline (PBS), was added. Fluorescence intensity was measured at an excitation wavelength of 545 nm and a fluorescence wavelength of 590 nm. A relative value thereof to the fluorescence intensity of a control containing no sample solution was calculated as the proliferation rate of S. oralis. The proliferation rate calculated was evaluated based on the following evaluation criteria. The results are shown in Table 1. • A: 10 or more • B: 5 or more and less than 10 • C: less than 5 […]
The proliferation rate of S. oralis in the case in which galactose was used as the sugar and citrulline was used as the amino acid, was measured. The test method was the same as in Test 1. The concentrations of galactose and citrulline in sample solutions and the measurement results of proliferation rates are shown in Table 3. In Test 3, the concentrations of galactose in sample solutions were set at 0 mg/ml or 2 mg/ml and the concentrations of citrulline were set at 0.5 to 3.0 mg/ml.
The proliferation rate of S. oralis was measured in the case in which 2′-fucosyllactose was used as the sugar and arginine was used as the amino acid. The test method was the same as in Test 1. The concentrations of 2′-fucosyllactose and arginine in sample solutions and the measurement results of proliferation rates are shown in Table 4. […]

In the case of `N=C(N)NCCC[C@H](N)C(=O)O` [Comparative Example 1, Arginine], the “Effect of promoting proliferation of S. oralis (in words)” value (shortened to “Effect”) (Test 1) is given as “not obtained”. Besides, where the note is “Test 1, sample solution in BHI medium: sugar 20 mg/ml, amino acid 0 or 15 mg/ml, 37° C., anaerobic, 24 hours”, the “Evaluation of proliferation rate” value is “C (less than 5)”.
As for `NC(=O)NCCC[C@H](N)C(=O)O` [Comparative Example 8, Citrulline], where the note is “Test 3, citrulline 0.5 to 3.0 mg/ml, galactose 0 or 2 mg/ml”, the “Effect” value is “the effect of proliferating S. oralis was promoted but the level of the proliferation promotion effect decreased as the concentration of citrulline increased”. For the same compound, the Proliferation rate reads like this: (Test 3, galactose 0 mg/ml, citrulline 0.5 mg/ml) 3.8; (Test 3, galactose 0 mg/ml, citrulline 1.0 mg/ml) 2.7; (Test 3, galactose 0 mg/ml, citrulline 2.0 mg/ml) 1.8.
Regarding `C[C@@H]1O[C@@H](O[C@H]2[C@H](O[C@H]3[C@H](O)[C@@H](O)C(O)O[C@@H]3CO)O[C@H](CO)[C@H](O)[C@@H]2O)[C@@H](O)[C@H](O)[C@@H]1O` (some centres unmarked) [Comparative Example 9, 2′-Fucosyllactose], the Proliferation rate is, setting by setting: (Test 4, 2′-fucosyllactose 1 mg/ml, arginine 0 mg/ml) 1.0; (Test 4, 2′-fucosyllactose 2 mg/ml, arginine 0 mg/ml) 1.5; (Test 4, 2′-fucosyllactose 3 mg/ml, arginine 0 mg/ml) 0.9; (Test 4, 2′-fucosyllactose 4 mg/ml, arginine 0 mg/ml) 0.6. For the setting “Test 4, 2′-fucosyllactose 1 to 4 mg/ml, arginine 0 or 1.5 mg/ml”, the “Effect” value is listed as “scarcely observed”.
